Read-outs that look alike come from different tables or passages of the source. Values belong to the molecule of their own block, whether it stands above or below them.
Experiments:
[1] = target: T1, catalytic domain of human Bub1 (amino acids 704-1085) (Homo sapiens, UniProt O43683); assay: Bub1 kinase assay (TR-FRET); assay type: biochemical
T1 construct: catalytic domain of human Bub1 (amino acids 704-1085); His6 (N); made in house; host or cells: Hi5 insect cells
Protocol: To this end, 100-fold concentrated compound solutions (in DMSO) were previously prepared by serial dilution (1:3.4) of 2 mM stocks in a clear low volume 384-well source microtiter plate (Greiner Bio-One, Frickenhausen, Germany), from which 50 nl of compounds were transferred into a black low volume test microtiter plate from the same supplier. […] The resulting mixture (5 μL final volume) was incubated at […] during 60 min., and the reaction was stopped by the addition of 5 μL of an aqueous EDTA-solution (50 mM EDTA, in 100 mM HEPES pH 7.5 and 0.2% (w/v) bovine serum albumin) which also contained the TR-FRET detection reagents (0.2 μM streptavidin-XL665 [Cisbio Bioassays, Codolet, France] and 1 nM anti-phosho-Serine antibody [Merck Millipore, cat. #35-001] and 0.4 nM LANCE EU-W1024 labeled anti-mouse IgG antibody [Perkin-Elmer, product no. AD0077, alternatively a Terbium-cryptate-labeled anti-mouse IgG antibody from Cisbio Bioassays can be used]). The stopped reaction mixture was further incubated 1 h at 22° C. in order to allow the formation of complexes between peptides and detection reagents. Subsequently, the amount of product was evaluated by measurement of the resonance energy transfer from the Eu-chelate-antibody complex recognizing the Phosphoserine residue to the streptavidin-XL665 bound to the biotin moiety of the peptide. […] IC50 values were calculated by fitting the normalized inhibition data to a 4-parameter logistic equation (Minimum, Maximum, IC50, Hill; Y=Max+(Min−Max)/(1+(X/IC50)Hill)).

Caco2 cell line = assay: Proliferation assay (Caco2 cell line); assay type: cell-based; settings: Homo sapiens, Caco-2, 96 h, read-out: Biological Assay 2: Proliferation assay (Caco2 cell line) median IC50
Protocol: (§1) Cultivated tumor cells (cells were ordered from ATCC, except HeLa-MaTu and HeLa-MaTu-ADR, which were ordered from EPO-GmbH, Berlin) were plated at a density of 1000 to 5000 cells/well, depending on the growth rate of the respective cell line, in a 96-well multititer plate in 200 μL of their respective growth medium supplemented 10% fetal calf serum. After 24 hours, the cells of one plate (zero-point plate) were stained with crystal violet (see below), while the medium of the other plates was replaced by fresh culture medium (200 μL), to which the test substances were added in various concentrations (0 μM, as well as in the range of 0.001-10 μM; the final concentration of the solvent dimethyl sulfoxide was 0.5%). The cells were incubated for 4 days in the presence of test substances. Cell proliferation was determined by staining the cells with crystal violet: the cells were fixed by adding 20 μl/measuring point of an 11% glutaric aldehyde solution for 15 minutes at room temperature. After three washing cycles of the fixed cells with water, the plates were dried at room temperature. The cells were stained by adding 100 μl/measuring point of a 0.1% crystal violet solution (pH 3.0). After three washing cycles of the stained cells with water, the plates were dried at room temperature. The dye was dissolved by adding 100 μl/measuring point of a 10% acetic acid solution. Absorption was determined by photometry at a wavelength of 595 nm. The change of cell number, in percent, was calculated by normalization of the measured values to the absorption values of the zero-point plate (=0%) and the absorption of the untreated (0 μm) cells (=100%). The IC50 values were determined by means of a 4 parameter fit using the company's own software.

HeLa-MaTu-ADR cell line = assay: Proliferation assay (HeLa-MaTu-ADR cell line); assay type: cell-based; settings: 96 h, read-out: Biological Assay 2: Proliferation assay (HeLa-MaTu-ADR cell line) median IC50
Protocol: as §1

B16F10 cell line = assay: Proliferation assay (B16F10 cell line); assay type: cell-based; settings: Mus musculus, B16-F10, 96 h, read-out: Biological Assay 2: Proliferation assay (B16F10 cell line) median IC50
Protocol: as §1

DU145 cell line = assay: Proliferation assay (DU145 cell line); assay type: cell-based; settings: Homo sapiens, DU-145, 96 h, read-out: Biological Assay 2: Proliferation assay (DU145 cell line) median IC50
Protocol: as §1

HeLa cell line = assay: Proliferation assay (HeLa cell line); assay type: cell-based; settings: Homo sapiens, 96 h, read-out: Biological Assay 2: Proliferation assay (HeLa cell line) median IC50
Protocol: as §1

NCI-H460 cell line = assay: Proliferation assay (NCI-H460 cell line); assay type: cell-based; settings: Homo sapiens, read-out: Biological Assay 2: Proliferation assay (NCI-H460 cell line) median IC50
Protocol: as §1

[2] = TR-FRET, 10 μM ATP, 1 μM peptide substrate, read-out: Biological Assay 1: Bub1 kinase assay median IC50
[3] = cervical cancer, 4 days incubation, crystal violet staining

T1 sequence (O43683 704-1085): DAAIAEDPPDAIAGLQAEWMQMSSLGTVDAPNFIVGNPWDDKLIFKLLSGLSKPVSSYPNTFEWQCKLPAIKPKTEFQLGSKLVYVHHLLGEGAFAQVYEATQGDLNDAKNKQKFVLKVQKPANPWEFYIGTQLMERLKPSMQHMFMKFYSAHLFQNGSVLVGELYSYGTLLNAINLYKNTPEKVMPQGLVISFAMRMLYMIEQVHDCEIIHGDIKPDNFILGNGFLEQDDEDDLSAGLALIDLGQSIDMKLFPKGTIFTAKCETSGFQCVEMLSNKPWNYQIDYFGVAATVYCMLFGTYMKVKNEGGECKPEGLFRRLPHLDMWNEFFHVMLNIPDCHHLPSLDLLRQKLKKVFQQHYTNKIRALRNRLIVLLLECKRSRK

IC50 [1, 2]: 7.2 nM
IC50 (HeLa cell line): 3900 nM
Compound: CCOc1cc(F)c(Cn2nc(-c3nc(N)c(OCCOC)c(Nc4ccncc4)n3)c3ccccc32)c(F)c1 [Example 2-3-10, 2-[1-(4-ethoxy-2,6-difluorobenzyl)-1H-indazol-3-yl]-5-(2-methoxyethoxy)-N-(pyridin-4-yl)pyrimidine-4,6-diamine]

IC50 [1, 2]: 8 nM
IC50 (HeLa cell line): 1200 nM
Compound: CCOc1cc(F)c(Cn2nc(-c3nc4c(c(Nc5ccncc5)n3)OCC(=O)N4)c3ccccc32)c(F)c1 [Example 2-3-17, 2-[1-(4-ethoxy-2,6-difluorobenzyl)-1H-indazol-3-yl]-4-(pyridin-4-ylamino)-6H-pyrimido[5,4-b][1,4]oxazin-7(8H)-one]

IC50 [1]: 640 nM
IC50 (HeLa cell line; [3]): 3400 nM
Compound: CCOc1cc(F)c(Cn2nc(-c3nc(Nc4ccncc4)c(N4CCOCC4)c(Nc4ccncc4)n3)c3ccccc32)c(F)c1 [Example 2-4-3, 2-[1-(4-ethoxy-2,6-difluorobenzyl)-1H-indazol-3-yl]-5-(morpholin-4-yl)-N,N′-di(pyridin-4-yl)pyrimidine-4,6-diamine]

IC50 [1, 2]: 19 nM
IC50 (HeLa cell line): 3600 nM
Compound: Nc1cc(Nc2ccncc2)nc(-c2nn(Cc3ccccc3F)c3ccccc23)n1 [Example 2-1-1, 2-[1-(2-fluorobenzyl)-1H-indazol-3-yl]-N-(pyridin-4-yl)pyrimidine-4,6-diamine]

IC50 [1, 2]: 4.1 nM
IC50 (HeLa cell line): 3500 nM
Compound: CCOc1cc(F)c(Cn2nc(-c3nc(N)c(OCCO)c(Nc4ccncc4)n3)c3ccccc32)c(F)c1 [Example 2-5-1, 2-({4-amino-2-[1-(4-ethoxy-2,6-difluorobenzyl)-1H-indazol-3-yl]-6-(pyridin-4-ylamino)pyrimidin-5-yl}oxy)ethanol]

IC50 [1]: > 20000 nM
IC50 (Caco2 cell line; Caco2, colon cancer, 4 days incubation, crystal violet staining): 1100 nM
IC50 (HeLa-MaTu-ADR cell line; HeLa-MaTu-ADR, cervical cancer, 4 days incubation, crystal violet staining): 1500 nM
IC50 (B16F10 cell line; B16F10, melanoma, 4 days incubation, crystal violet staining): 250 nM
IC50 (DU145 cell line; DU145, prostate cancer, 4 days incubation, crystal violet staining): 360 nM
IC50 (HeLa cell line; [3]): 490 nM
IC50 (NCI-H460 cell line; 96 h, NCI-H460, non-small cell lung cancer, 4 days incubation, crystal violet staining): 470 nM
Compound: Fc1ccccc1Cn1nc(-c2nc(Nc3ccncc3)cc(Nc3ccncc3)n2)c2ccccc21 [Example 2-1-2, 2-[1-(2-fluorobenzyl)-1H-indazol-3-yl]-N,N′-di(pyridin-4-yl)pyrimidine-4,6-diamine]

Further lines, the molecule ahead of its results:

Compound: CCOc1cc(F)c(Cn2nc(-c3nc(Nc4ccncc4)c(OCCO)c(Nc4ccncc4)n3)c3ccccc32)c(F)c1 [Example 2-5-2, 2-({2-[1-(4-ethoxy-2,6-difluorobenzyl)-1H-indazol-3-yl]-4,6-bis-(pyridin-4-ylamino)pyrimidin-5-yl}oxy)ethanol]
IC50 [1, 2]: 170 nM
IC50 (Caco2 cell line): 400 nM
IC50 (HeLa-MaTu-ADR cell line): 280 nM
IC50 (B16F10 cell line): 520 nM
IC50 (DU145 cell line): 940 nM
IC50 (HeLa cell line): 1200 nM
IC50 (NCI-H460 cell line; NCI-H460, 96 h): 590 nM

Compound: CCOc1cc(F)c(Cn2nc(-c3nc(Nc4ccncc4)c(OC)c(Nc4ccncc4)n3)c3ccccc32)c(F)c1 [Example 2-4-2, 2-[1-(4-ethoxy-2,6-difluorobenzyl)-1H-indazol-3-yl]-5-methoxy-N,N′-di(pyridin-4-yl)pyrimidine-4,6-diamine]
IC50 [1, 2]: 430 nM
IC50 (Caco2 cell line): 420 nM
IC50 (HeLa-MaTu-ADR cell line): 1100 nM
IC50 (B16F10 cell line): 540 nM
IC50 (DU145 cell line): 3700 nM
IC50 (HeLa cell line): 1500 nM
IC50 (NCI-H460 cell line; NCI-H460, 96 h): 4300 nM

Compound: CCOc1cc(F)c(Cn2nc(-c3nc(Nc4ccncc4)nc(Nc4ccncc4)n3)c3ccccc32)c(F)c1 [Example 2-4-5, 6-[1-(4-ethoxy-2,6-difluorobenzyl)-1H-indazol-3-yl]-N,N′-di(pyridin-4-yl)-1,3,5-triazine-2,4-diamine]
IC50 [1, 2]: 43 nM
IC50 (Caco2 cell line): 480 nM
IC50 (HeLa-MaTu-ADR cell line): 390 nM
IC50 (B16F10 cell line): 780 nM
IC50 (DU145 cell line): 1200 nM
IC50 (HeLa cell line): 940 nM
IC50 (NCI-H460 cell line; NCI-H460, 96 h): 750 nM

Compound: CCOc1cc(F)c(Cn2nc(-c3nc(N)c(NC(=O)COC)c(Nc4ccncn4)n3)c3ccccc32)c(F)c1 [Example 2-3-14, N-{4-amino-2-[1-(4-ethoxy-2,6-difluorobenzyl)-1H-indazol-3-yl]-6-(pyrimidin-4-ylamino)pyrimidin-5-yl}-2-methoxyacetamide]
IC50 [1, 2]: 7.9 nM
IC50 (HeLa cell line): ≥ 10000 nM

Compound: COCC(=O)Nc1cc(Nc2ccncc2)nc(-c2nn(Cc3ccccc3F)c3ccccc23)n1 [Example 2-2-2, N-{2-[1-(2-fluorobenzyl)-1H-indazol-3-yl]-6-(pyridin-4-ylamino)pyrimidin-4-yl}-2-methoxyacetamide]
IC50 [1, 2]: 96 nM
IC50 (HeLa cell line): ≥ 10000 nM

Compound: CCOc1cc(F)c(Cn2nc(-c3nc(N)c(OCCOC)c(Nc4ccncn4)n3)c3ccccc32)c(F)c1 [Example 2-3-11, 2-[1-(4-ethoxy-2,6-difluorobenzyl)-1H-indazol-3-yl]-5-(2-methoxyethoxy)-N-(pyrimidin-4-yl)pyrimidine-4,6-diamine]
IC50 [1, 2]: 5.2 nM
IC50 (HeLa cell line): 3700 nM

Compound: CCOc1cc(F)c(Cn2nc(-c3nc(N)c(N4CCOCC4)c(Nc4ccncn4)n3)c3ccccc32)c(F)c1 [Example 2-3-7, 2-[1-(4-ethoxy-2,6-difluorobenzyl)-1H-indazol-3-yl]-5-(morpholin-4-yl)-N-(pyrimidin-4-yl)pyrimidine-4,6-diamine]
IC50 [1, 2]: 6.6 nM
IC50 (HeLa cell line): 9000 nM

Source: patent US20170283396A1, “DIAMINOHETEROARYL SUBSTITUTED INDAZOLES” (Bayer Pharma Aktiengesellschaft, priority 2013, published 2017)
